According to US20210330611A1, “THERAPY FOR NEUROLOGICAL DISEASES/DISORDERS” (priority 2020, published 2021):
Counter-ions that a name gives are not always drawn. Like-named read-outs stand apart in the source and are kept apart here.

Experiments:
[1] = in vitro; conditions: rat, Cell Toxicity IC50 (uM) [cFib assay]
[2] = tested on: fibrin-induced microglia activation; test: Image-based assay of fibrin-induced microglia activation (HTS and dose response); format: cell-based, rat; conditions: for IC50 / inhibition at 10 µM: Rattus norvegicus, Microglia; for inhibition at 10 µM: primary microglia HTS, fibrin stimulation, increased cell size (>800 μm^2) as marker of activation, read-out: Fibrin % inhibition
[3] = tested on: fibrin- and LPS-induced microglia activation; test: cells; format: cell-based, rat; conditions: for inhibition at 10 µM: Rattus norvegicus
[4] = in vitro; conditions: rat
[5] = tested on: primary rat microglia; test: Cell toxicity (dead cells, size <150 μm2) in coated fibrin (cFib) assay; conditions: primary microglia HTS, fibrin stimulation; decreased size (<150 μm^2) as marker of toxicity;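 as to Fibrin % cell toxicity: share of dead cells sized under 150 µm2 at 10 µM in fibrin-stimulated microglia HTS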
[6] = tested on: LPS-induced microglia activation; test: Image-based assay of LPS-induced microglia activation (HTS and dose response); format: cell-based, rat; conditions: Rattus norvegicus, Microglia; for inhibition at 10 µM: primary microglia HTS, LPS stimulation, increased cell size (>800 μm^2) as marker of activation, read-out: LPS % inhibition
[7] = tested on: primary rat microglia; test: Cell toxicity (dead cells, size <150 μm2) in LPS assay; conditions: for LPS % cell toxicity: primary microglia HTS, LPS stimulation, decreased size (<150 μm^2) as marker of toxicity; for IC50: read-out: Cell Toxicity IC50 (uM) [LPS assay], LPS assay
[8] = 48 h, Table 1, dose response 0.001-20 μM, triplicates, primary rat microglia, 48 h, read-out: Fibrin IC50
[9] = dose response, fibrin-induced microglia activation, read-out: Fibrin IC50
[10] = fibrin-induced microglia activation, dose response, read-out: Fibrin IC50 (uM) (Suppl. Table 7)
[11] = HTS of 1907 compounds, quadrant by fibrin and LPS inhibition
[12] = Microglia, HTS hit classification, read-out: Hit
[13] = hit classification in microglia HTS, read-out: Cherry-picked Hit (Suppl. Table 7)
[14] = quadrant by fibrin and LPS inhibition in HTS of 1907 compounds
[15] = 48 h, Table 1, dose response 0.001-20 μM, triplicates, primary rat microglia, 48 h, read-out: LPS IC50
[16] = LPS-induced microglia activation, dose response, read-out: LPS IC50 (uM) (Suppl. Table 7)
[17] = dose response, LPS-induced microglia activation, read-out: LPS IC50
[18] = Table 3, read-out: Fibrin IC50 (uM) (Suppl. Table 7)
[19] = Microglia, Table 3, read-out: Cherry-picked Hit (Suppl. Table 7)
[20] = Table 3, read-out: LPS IC50 (uM) (Suppl. Table 7)

CC(CCc1ccc(O)cc1)NCC(O)c1ccc(O)cc1 (stereo not shown) [Ractopamine hydrochloride, reference compound]
IC50 ([1]; cFib assay): > 20 µM | IC50 [2, 8]: 20 µM | IC50 [2, 9]: 20 µM | IC50 [2, 10]: 20 µM | inhibition at 10 µM [2]: 50% | Quadrant (FIG. 5b) [3, 11]: Q3 | inhibition at 10 µM [3, 12]: > 50% | inhibition at 10 µM [3, 13]: > 50% | Quadrant (FIG. 5b) ([3]; Table 1, screen at 10 μM): Q3 | Quadrant (FIG. 5b) [3, 14]: Q3 | IC50 [4]: > 20 µM | Fibrin % cell toxicity [5]: 1% | IC50 [6, 15]: > 20 µM | inhibition at 10 µM ([6]; 48 h): 39% | IC50 [6, 16]: > 20 µM | IC50 [6, 17]: > 20 µM | LPS % cell toxicity [7]: 0%

O=P(O)(O)C(O)(Cc1cccnc1)P(=O)(O)O [Risedronate sodium, reference compound]
IC50 ([1]; cFib assay): > 20 µM | IC50 [2, 8]: 19 µM | IC50 [2, 9]: 19 µM | IC50 [2, 10]: 19 µM | inhibition at 10 µM [2]: 81% | Quadrant (FIG. 5b) [3, 11]: Q3 | inhibition at 10 µM [3, 12]: > 50% | inhibition at 10 µM [3, 13]: > 50% | Quadrant (FIG. 5b) ([3]; Table 1, screen at 10 μM): Q3 | Quadrant (FIG. 5b) [3, 14]: Q3 | IC50 [4]: > 20 µM | Fibrin % cell toxicity [5]: 2% | IC50 [6, 15]: > 20 µM | inhibition at 10 µM ([6]; 48 h): 16% | IC50 [6, 16]: > 20 µM | IC50 [6, 17]: > 20 µM | LPS % cell toxicity [7]: 0%

CC(NCCc1ccc(O)cc1)C(O)c1ccc(O)cc1 (stereo not shown) [Ritodrine hydrochloride, reference compound]
IC50 ([1]; Table 3): > 20 µM | IC50 ([1]; cFib assay): > 20 µM | IC50 ([1]; cFib assay, Table 6): > 20 µM | Fibrin Selectivity [2]: 33 | Fibrin Selectivity (LOG10) [2]: 1.51 | IC50 [2, 8]: 0.6 µM | IC50 [2, 18]: 0.6 µM | IC50 ([2]; Table 6, read-out: Fibrin IC50 (uM) (Suppl. Table 7)): 0.6 µM | IC50 [2, 9]: 0.6 µM | IC50 [2, 10]: 0.6 µM | inhibition at 10 µM [2]: 51% | Fibrin Selectivity (LOG10) ([2]; fibrin vs LPS, LOG10, Table 6): 1.51 | Fibrin Selectivity ([2]; fibrin vs LPS, Table 6): 33 | Quadrant (FIG. 5b) [3, 11]: Q3 | inhibition at 10 µM [3, 19]: > 50% | inhibition at 10 µM [3, 12]: > 50% | Quadrant (FIG. 5b) ([3]; Table 1, screen at 10 μM): Q3 | Quadrant (FIG. 5b) ([3]; Table 3, screen at 10 μM): Q3 | Quadrant (FIG. 5b) ([3]; microglia HTS, Table 6): Q3 | Quadrant (FIG. 5b) [3, 14]: Q3 | IC50 [4]: > 20 µM | Fibrin % cell toxicity [5]: 1% | IC50 [6, 15]: > 20 µM | inhibition at 10 µM ([6]; 48 h): 36% | IC50 [6, 16]: > 20 µM | IC50 [6, 20]: > 20 µM | IC50 ([6]; Table 6, read-out: LPS IC50 (uM) (Suppl. Table 7)): > 20 µM | IC50 [6, 17]: > 20 µM | LPS % cell toxicity [7]: 1% | IC50 [7]: > 20 µM | IC50 ([7]; Table 6): > 20 µM

CC(C)c1nc(N(C)S(C)(=O)=O)nc(-c2ccc(F)cc2)c1/C=C/[C@@H](O)C[C@@H](O)CC(=O)O [Rosuvastatin, reference compound]
IC50 ([1]; Table 3): 20 µM | IC50 ([1]; cFib assay): 20 µM | Fibrin Selectivity [2]: 12 | Fibrin Selectivity (LOG10) [2]: 1.09 | IC50 [2, 8]: 0.3 µM | IC50 [2, 18]: 0.3 µM | IC50 [2, 9]: 0.3 µM | IC50 [2, 10]: 0.3 µM | inhibition at 10 µM [2]: 93% | Quadrant (FIG. 5b) [3, 11]: Q2 | inhibition at 10 µM [3, 19]: > 50% | inhibition at 10 µM [3, 12]: > 50% | Quadrant (FIG. 5b) ([3]; Table 1, screen at 10 μM): Q2 | Quadrant (FIG. 5b) ([3]; Table 3, screen at 10 μM): Q2 | Quadrant (FIG. 5b) [3, 14]: Q2 | IC50 [4]: > 20 µM | Fibrin % cell toxicity [5]: 2% | IC50 [6, 15]: 3 µM | inhibition at 10 µM ([6]; 48 h): 95% | IC50 [6, 16]: 3 µM | IC50 [6, 20]: 3 µM | IC50 [6, 17]: 3 µM | LPS % cell toxicity [7]: 4% | IC50 [7]: > 20 µM

OCc1ccccc1O[C@@H]1O[C@H](CO)[C@@H](O)[C@H](O)[C@H]1O [Salicin, reference compound]
IC50 ([1]; cFib assay): > 20 µM | IC50 [2, 8]: > 20 µM | IC50 [2, 9]: > 20 µM | IC50 [2, 10]: > 20 µM | inhibition at 10 µM [2]: 76% | Quadrant (FIG. 5b) [3, 11]: Q2 | inhibition at 10 µM [3, 12]: > 50% | inhibition at 10 µM [3, 13]: > 50% | Quadrant (FIG. 5b) ([3]; Table 1, screen at 10 μM): Q2 | Quadrant (FIG. 5b) [3, 14]: Q2 | IC50 [4]: > 20 µM | Fibrin % cell toxicity [5]: 1% | IC50 [6, 15]: > 20 µM | inhibition at 10 µM ([6]; 48 h): 61% | IC50 [6, 16]: > 20 µM | IC50 [6, 17]: > 20 µM | LPS % cell toxicity [7]: 1%
